ChEMBL document CHEMBL5584214, “Design of MERS-CoV entry inhibitory short peptides based on helix-stabilizing strategies” (Bioorg Med Chem Lett, 2024)
In brackets after ≈: the same amount, converted by molar mass. Activity calls are given as the source filed them. The rule behind the calls is not given here. Non-standard residues stand in square brackets, D forms with d. Residues, ends and D or L forms follow the SMILES beside them. *: point of attachment. PEG24 = NCCOCCOCCOCCOCCOCCOCCOCCOCCOCCOCCOCCOCCOCCOCCOCCOCCOCCOCCOCCOCCOCCOCCOCCOCCC(=O)O; PEG12 = NCCOCCOCCOCCOCCOCCOCCOCCOCCOCCOCCOCCOCCC(=O)O; Palmitoyl = CCCCCCCCCCCCCCCC(=O)*; Octanoyl = CCCCCCCC(=O)*; AEEA = NCCOCCOCC(=O)O; Aib = CC(C)(N)C(=O)O

How the values were obtained:
[1] = Half life in Sprague-Dawley rat at 4 mg/kg, iv administered as single dose and measured upto 36 hrs by LC-MS/MS analysis; type: ADME, organism-based; conditions: in vivo
[2] = MRT (0 to t) in Sprague-Dawley rat at 4 mg/kg, iv administered as single dose and measured upto 36 hrs by LC-MS/MS analysis; type: ADME, organism-based; conditions: in vivo
[3] = Volume of distribution in Sprague-Dawley rat at 4 mg/kg, iv administered as single dose and measured upto 36 hrs by LC-MS/MS analysis; type: ADME, organism-based; conditions: in vivo
[4] = Clearance in Sprague-Dawley rat at 4 mg/kg, iv administered as single dose and measured upto 36 hrs by LC-MS/MS analysis; type: ADME, organism-based; conditions: in vivo
[5] = Inhibition of MERS-CoV Spike glycoprotein mediated cell-cell fusion; design: species or system Middle East respiratory syndrome-related coronavirus
[6] = AUC (0 to t) in Sprague-Dawley rat at 4 mg/kg, iv administered as single dose and measured upto 36 hrs by LC-MS/MS analysis; type: ADME, organism-based; conditions: in vivo
[7] = Cmax in Sprague-Dawley rat at 4 mg/kg, iv administered as single dose and measured upto 36 hrs by LC-MS/MS analysis; type: ADME, organism-based; conditions: in vivo
[8] = Water solubility of compound in PBS at pH 7.4; type: physicochemical
[9] = system: Middle East respiratory syndrome-related coronavirus; test: Inhibition of MERS CoV spike glycoprotein HR1/HR2 fusion assessed as disruption of fusion-active core formation by measuring increase in HR2P density at 100 uM by native-PAGE analysis
[10] = Selectivity index, ratio of CC50 for human Huh-7 cells infected with MERS CoV pseudovirus to EC50 for MERS CoV pseudovirus infected in Huh-7 cells; type: toxicity, cell-based; conditions: read-out: Ratio CC50/EC50
[11] = system: Middle East respiratory syndrome-related coronavirus; test: Inhibition of MERS CoV spike glycoprotein HR1/HR2 fusion assessed as disruption of fusion-active core formation by measuring reduction in six-helix bundle density at 100 uM by native-PAGE analysis
[12] = Cytotoxicity against human Huh-7 cells infected with MERS CoV pseudovirus assessed as reduction in cell viability; type: toxicity, cell-based
[13] = Water solubility of compound in dd-H2O; type: physicochemical
[14] = system: Middle East respiratory syndrome-related coronavirus; test: Antiviral activity against MERS CoV pseudovirus infected in Huh-7 cells assessed as inhibition of viral infection; type: functional, organism-based

CC[C@H](C)[C@H](NC(=O)[C@H](Cc1ccc(O)cc1)NC(=O)[C@H](CO)NC(=O)[C@H](CCC(=O)O)NC(=O)[C@H](CCC(=O)O)NC(=O)[C@H](CC(C)C)NC(=O)[C@H](CCCCN)NC(=O)[C@H](CCCCN)NC(=O)[C@@H](NC(=O)[C@@H](NC(=O)[C@H](CCC(=O)O)NC(=O)[C@H](CCC(=O)O)NC(=O)[C@H](CC(C)C)NC(=O)[C@H](CCCCN)NC(=O)[C@H](CCCCN)NC(=O)[C@H](CCSC)NC(=O)[C@H](CCC(=O)O)NC(=O)[C@H](Cc1ccc(O)cc1)NC(=O)[C@H](CCC(=O)O)NC(=O)[C@H](CC(C)C)NC(=O)[C@H](CC(=O)O)NC(=O)[C@H](CC(C)C)NC(=O)[C@H](CC(C)C)NC(=O)[C@@H](NC(=O)[C@@H](NC(=O)[C@H](CC(N)=O)NC(=O)[C@@H](NC(=O)[C@H](CCC(N)=O)NC(=O)[C@@H](NC(=O)[C@H](CC(C)C)NC(=O)[C@@H](N)CO)[C@@H](C)O)[C@@H](C)CC)[C@@H](C)O)[C@@H](C)O)C(C)C)C(C)C)C(=O)N[C@@H](CC(=O)O)C(=O)N[C@@H](CC(C)C)C(=O)N[C@@H](CCCCN)C(=O)N[C@@H](CCC(=O)O)C(=O)N[C@@H](CC(C)C)C(=O)O
half-life [1]: 0.35 h
MRT last at 36 h [2]: 0.28 h
Vd [3]: 0.307 L/kg
clearance [4]: 10.2 mL/min/kg
EC50 [5]: 0.75 µM
AUC(0-t) at 36 h [6]: 6450 ng·h/mL
Cmax [7]: 30400 ng/mL

CSCC[C@H](NC(=O)C(C)(C)NC(=O)[C@H](Cc1ccc(O)cc1)NC(=O)[C@H](CCC(=O)O)NC(=O)[C@H](CC(C)C)NC(=O)C(C)(C)NC(=O)[C@H](CC(C)C)NC(C)=O)C(=O)N[C@@H](CCCCN)C(=O)N[C@@H](CO)C(=O)N[C@@H](CC(C)C)C(=O)N[C@@H](CCC(N)=O)C(=O)N[C@@H](CCC(=O)O)C(=O)N[C@H](C(=O)N[C@H](C(=O)N[C@@H](CCCCN)C(=O)N[C@@H](CCCCN)C(=O)N[C@@H](CC(C)C)C(=O)N[C@@H](CC(N)=O)C(=O)N[C@@H](CCC(=O)O)C(=O)N[C@@H](CO)C(=O)N[C@@H](Cc1ccc(O)cc1)C(N)=O)C(C)C)C(C)C (Ac-L[Aib]LEY[Aib]MKSLQEVVKKLNESY-NH2)
EC50 [5]: 24 µM

CSCC[C@H](NC(=O)C(C)(C)NC(=O)[C@H](Cc1ccc(O)cc1)NC(=O)[C@@H](NC(=O)[C@H](CC(C)C)NC(=O)C(C)(C)NC(=O)[C@H](CC(C)C)NC(C)=O)[C@@H](C)O)C(=O)N[C@@H](CC(C)C)C(=O)N[C@@H](CO)C(=O)N[C@@H](CC(C)C)C(=O)N[C@@H](CCC(N)=O)C(=O)N[C@@H](CCC(=O)O)C(=O)N[C@H](C(=O)N[C@H](C(=O)N[C@@H](CCCCN)C(=O)N[C@@H](CCCCN)C(=O)N[C@@H](CC(C)C)C(=O)N[C@@H](CC(N)=O)C(=O)N[C@@H](CCC(=O)O)C(=O)N[C@@H](CO)C(=O)N[C@@H](Cc1ccc(O)cc1)C(N)=O)C(C)C)C(C)C (Ac-L[Aib]LTY[Aib]MLSLQEVVKKLNESY-NH2)
EC50 [5]: 3.62 µM

CCCCCCCC(=O)NCCCC[C@H](NC(=O)COCCOCCNC(=O)[C@H](Cc1ccc(O)cc1)NC(=O)[C@H](CO)NC(=O)[C@H](CCC(=O)O)NC(=O)[C@H](CC(N)=O)NC(=O)[C@H](CC(C)C)NC(=O)[C@H](CCCCN)NC(=O)[C@H](CCCCN)NC(=O)[C@@H](NC(=O)[C@@H](NC(=O)[C@H](CCC(=O)O)NC(=O)[C@H](CCC(N)=O)NC(=O)[C@H](CC(C)C)NC(=O)[C@H](CO)NC(=O)[C@H](CC(C)C)NC(=O)[C@H](CCSC)NC(=O)C(C)(C)NC(=O)[C@H](Cc1ccc(O)cc1)NC(=O)[C@@H](NC(=O)[C@H](CC(C)C)NC(=O)C(C)(C)NC(=O)[C@H](CC(C)C)NC(C)=O)[C@@H](C)O)C(C)C)C(C)C)C(N)=O (Ac-L[Aib]LTY[Aib]MLSLQEVVKKLNESY[AEEA]K(Octanoyl)-NH2)
EC50 [5]: 0.864 µM

CCCCCCCCCCCCCCCC(=O)NCCCC[C@H](NC(=O)COCCOCCNC(=O)[C@H](Cc1ccc(O)cc1)NC(=O)[C@H](CO)NC(=O)[C@H](CCC(=O)O)NC(=O)[C@H](CC(N)=O)NC(=O)[C@H](CC(C)C)NC(=O)[C@H](CCCCN)NC(=O)[C@H](CCCCN)NC(=O)[C@@H](NC(=O)[C@@H](NC(=O)[C@H](CCC(=O)O)NC(=O)[C@H](CCC(N)=O)NC(=O)[C@H](CC(C)C)NC(=O)[C@H](CO)NC(=O)[C@H](CC(C)C)NC(=O)[C@H](CCSC)NC(=O)C(C)(C)NC(=O)[C@H](Cc1ccc(O)cc1)NC(=O)[C@@H](NC(=O)[C@H](CC(C)C)NC(=O)C(C)(C)NC(=O)[C@H](CC(C)C)NC(C)=O)[C@@H](C)O)C(C)C)C(C)C)C(N)=O (Ac-L[Aib]LTY[Aib]MLSLQEVVKKLNESY[AEEA]K(Palmitoyl)-NH2)
half-life [1]: 7.27 h
MRT last at 36 h [2]: 9.1 h
solubility [8]: 5.46 µM (≈ 16.4 µg/mL)
inhibition [9]: Active
selectivity ratio [10]: > 38.3
Vd [3]: 0.683 L/kg
clearance [4]: 1.08 mL/min/kg
inhibition [11]: Active
EC50 [5]: 0.245 µM
CC50 [12]: > 200 µM
solubility [13]: 1.17 µM (≈ 3.5 µg/mL)
AUC(0-t) at 36 h [6]: 59800 ng·h/mL
EC50 [14]: 5.22 µM
Cmax [7]: 5000 ng/mL

CCCCCCCCCCCCCCCC(=O)NCCCC[C@H](NC(=O)CCOCCOCCOCCOCCOCCOCCOCCOCCOCCOCCOCCOCCNC(=O)[C@H](Cc1ccc(O)cc1)NC(=O)[C@H](CO)NC(=O)[C@H](CCC(=O)O)NC(=O)[C@H](CC(N)=O)NC(=O)[C@H](CC(C)C)NC(=O)[C@H](CCCCN)NC(=O)[C@H](CCCCN)NC(=O)[C@@H](NC(=O)[C@@H](NC(=O)[C@H](CCC(=O)O)NC(=O)[C@H](CCC(N)=O)NC(=O)[C@H](CC(C)C)NC(=O)[C@H](CO)NC(=O)[C@H](CC(C)C)NC(=O)[C@H](CCSC)NC(=O)C(C)(C)NC(=O)[C@H](Cc1ccc(O)cc1)NC(=O)[C@@H](NC(=O)[C@H](CC(C)C)NC(=O)C(C)(C)NC(=O)[C@H](CC(C)C)NC(C)=O)[C@@H](C)O)C(C)C)C(C)C)C(N)=O (Ac-L[Aib]LTY[Aib]MLSLQEVVKKLNESY[PEG12]K(Palmitoyl)-NH2)
EC50 [5]: 1.42 µM

CCCCCCCCCCCCCCCC(=O)NCCCC[C@H](NC(=O)CCOCCOCCOCCOCCOCCOCCOCCOCCOCCOCCOCCOCCOCCOCCOCCOCCOCCOCCOCCOCCOCCOCCOCCOCCNC(=O)[C@H](Cc1ccc(O)cc1)NC(=O)[C@H](CO)NC(=O)[C@H](CCC(=O)O)NC(=O)[C@H](CC(N)=O)NC(=O)[C@H](CC(C)C)NC(=O)[C@H](CCCCN)NC(=O)[C@H](CCCCN)NC(=O)[C@@H](NC(=O)[C@@H](NC(=O)[C@H](CCC(=O)O)NC(=O)[C@H](CCC(N)=O)NC(=O)[C@H](CC(C)C)NC(=O)[C@H](CO)NC(=O)[C@H](CC(C)C)NC(=O)[C@H](CCSC)NC(=O)C(C)(C)NC(=O)[C@H](Cc1ccc(O)cc1)NC(=O)[C@@H](NC(=O)[C@H](CC(C)C)NC(=O)C(C)(C)NC(=O)[C@H](CC(C)C)NC(C)=O)[C@@H](C)O)C(C)C)C(C)C)C(N)=O (Ac-L[Aib]LTY[Aib]MLSLQEVVKKLNESY[PEG24]K(Palmitoyl)-NH2)
EC50 [5]: > 50 µM

Ac-LDLTYEMASLQAVVKALNESY-NH2
EC50 [5]: > 50 µM
